Reference: patent US10098870B2 (JENKEM TECHNOLOGY CO., LTD. (BEIJING), priority 2013, dated 2018)
Several values for one entry are separate records, joined by “and”; a condition that tells them apart may be missing. Equal entries are not always repeated.

Columns and labels:
[1] = test system: A549 human non-small cell lung cancer cells; test: Anti-tumor effect on xenograft tumor model of A549 in nude mice (Example 10); details: for Tumor volume: mean ± SE;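 for all read-outs here: nude mice bearing A549 xenografts established by inoculating 1.0×10^7 cells in PBS at the right shoulder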
Method: A549 cells were cultured with a monolayer in vitro in RPMI1640 medium supplied with heat-inactivated fetal bovine serum with a volume ratio of 10%, and an incubator at 37° C. with the air containing CO2 with a proportion of 5%. The tumor cells were passaged with digestion by trypsin-EDTA twice a week. The cells in the exponential growth phase were collected, counted, and used for inoculation.
1.0×10^7 of A549 tumor cells were suspended in 0.1 ml of PBS, inoculated to each nude mouse at the right shoulder, and there were totally 36 mice inoculated.

[2] = test system: Calu-6 human lung cancer cell; test: Anti-tumor effect on xenograft tumor model of Calu-6 in nude mice (Example 9); details: for T/C (%) RTV / T/C (%) TW: vs physiological saline; for RTV / Tumor weight: 42nd day, Mean ± SEM; for Tumor volume: mean ± SE;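 for all read-outs here: each nude mouse received 5.0×10^6 Calu-6 cells implanted at the right shoulder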
Method: Calu-6 cells were cultured with a monolayer in vitro in MEM medium supplied with heat-inactivated fetal bovine serum with a volume ratio of 10%, and an incubator at 37° C. with the air containing CO2 with a proportion of 5%. The tumor cells were passaged with digestion by trypsin-EDTA twice a week. The cells in the exponential growth phase were collected, counted, and used for inoculation.
5.0×10^6 of Calu-6 tumor cells were suspended in 0.1 ml of PBS, inoculated to each nude mouse at the right shoulder, and there were totally 34 mice inoculated.

[3] = test system: human hepatoma cell plc/prf/5; test: Anti-tumor effect on xenograft tumor model of plc/prf/5 in nude mice (Example 6); details: for T/C (%) RTV / T/C (%) TW: vs physiological saline; for RTV / Tumor weight: 38th day, Mean ± SEM; for Tumor volume: mean ± SE
From the text: The tumor cells were passaged with digestion by trypsin-EDTA twice a week. The cells in the exponential growth phase were collected, counted, and used for inoculation.
10 days later the mean tumor volume was desired to reach about 161 mm^3, the mice with a smaller or larger tumor were removed and the remaining 24 mice were divided into groups randomly according to tumor volume and administrated.
Wherein QW×4W represents intravenous injection once a week for 4 weeks, BIW×4W represents intravenous injection once every two weeks for 4 weeks, the same below.

[4] = 52nd day, 45 mg/kg i.v. QW×4W, Mean ± SEM
[5] = day 24 after inoculation, 30 mg/kg i.v. BIW×4W
[6] = day 24 after inoculation, 45 mg/kg i.v. QW×4W
[7] = day 28 after inoculation, 30 mg/kg i.v. BIW×4W
[8] = day 28 after inoculation, 45 mg/kg i.v. QW×4W
[9] = day 31 after inoculation, 30 mg/kg i.v. BIW×4W
[10] = day 31 after inoculation, 45 mg/kg i.v. QW×4W
[11] = day 35 after inoculation, 30 mg/kg i.v. BIW×4W
[12] = day 35 after inoculation, 45 mg/kg i.v. QW×4W
[13] = day 38 after inoculation, 30 mg/kg i.v. BIW×4W
[14] = day 38 after inoculation, 45 mg/kg i.v. QW×4W
[15] = day 17 after inoculation, 30 mg/kg i.v. BIW×4W
[16] = day 17 after inoculation, 45 mg/kg i.v. QW×4W

Q: For “monomethoxy polyethylene glycol (20K)-glutamic acid dipeptide-rapamycin conjugate [LPR-2]”, which RTV [1, 4] is on record?
A: 1.05 ± 0.11

Q: And the Tumor weight [1, 4]?
A: 129 ± 20 mg

Q: And the Tumor volume [1, 5]?
A: 140 ± 11 mm^3

Q: And the Tumor volume [1, 6]?
A: 139 ± 11 mm^3

Q: And the Tumor volume [1, 7]?
A: 131 ± 8 mm^3

Q: And the Tumor volume [1, 8]?
A: 115 ± 8 mm^3

Q: And the Tumor volume [1, 9]?
A: 134 ± 11 mm^3

Q: And the Tumor volume [1, 10]?
A: 126 ± 10 mm^3

Q: And the Tumor volume [1, 11]?
A: 124 ± 15 mm^3

Q: What about the Tumor volume [1, 12] of the same substance?
A: 122 ± 13 mm^3

Q: What about the Tumor volume [1, 13] of the same substance?
A: 131 ± 13 mm^3

Q: And the Tumor volume [1, 14]?
A: 120 ± 13 mm^3

Q: What about the Tumor volume ([1]; day 42 after inoculation, 30 mg/kg i.v. BIW×4W) of the same substance?
A: 122 ± 8 mm^3

Q: What about the Tumor volume ([1]; day 42 after inoculation, 45 mg/kg i.v. QW×4W) of the same substance?
A: 124 ± 9 mm^3

Q: What about the Tumor volume ([1]; day 45 after inoculation, 30 mg/kg i.v. BIW×4W) of the same substance?
A: 131 ± 9 mm^3

Q: What about the Tumor volume ([1]; day 45 after inoculation, 45 mg/kg i.v. QW×4W) of the same substance?
A: 140 ± 11 mm^3

Q: And the Tumor volume ([1]; day 49 after inoculation, 30 mg/kg i.v. BIW×4W)?
A: 128 ± 9 mm^3

Q: What about the Tumor volume ([1]; day 49 after inoculation, 45 mg/kg i.v. QW×4W) of the same substance?
A: 138 ± 14 mm^3

Q: And the Tumor volume ([1]; day 52 after inoculation, 30 mg/kg i.v. BIW×4W, 30 mg/kg)?
A: 127 mm^3 and 127 ± 6 mm^3

Q: What about the Tumor volume ([1]; day 52 after inoculation, 45 mg/kg i.v. QW×4W, 45 mg/kg) of the same substance?
A: 145 mm^3 and 145 ± 14 mm^3

Q: What about the “TGD (to 1,000 mm^3)” value ([2]; 30 mg/kg i.v. BIW×4W) of the same substance?
A: >8

Q: What about the “T/C (%) RTV” value ([2]; 30 mg/kg i.v. BIW×4W) of the same substance?
A: 31%

Q: And the “T/C (%) TW” value ([2]; 30 mg/kg i.v. BIW×4W)?
A: 28%

Q: And the “TGD (to 1,000 mm^3)” value ([2]; 45 mg/kg i.v. QW×4W)?
A: >8

Q: And the “T/C (%) RTV” value ([2]; 45 mg/kg i.v. QW×4W)?
A: 38%

Q: And the “T/C (%) TW” value ([2]; 45 mg/kg i.v. QW×4W)?
A: 37%

Q: And the RTV ([2]; 30 mg/kg i.v. BIW×4W)?
A: 4.39 ± 0.59

Q: And the Tumor weight ([2]; 30 mg/kg i.v. BIW×4W)?
A: 449 ± 89 mg

Q: What about the RTV ([2]; 45 mg/kg i.v. QW×4W) of the same substance?
A: 5.41 ± 0.51

Q: And the Tumor weight ([2]; 45 mg/kg i.v. QW×4W)?
A: 602 ± 83 mg

Q: And the Tumor volume ([2]; day 14 after inoculation, 30 mg/kg i.v. BIW×4W)?
A: 139 ± 18 mm^3

Q: And the Tumor volume ([2]; day 14 after inoculation, 45 mg/kg i.v. QW×4W)?
A: 137 ± 22 mm^3

Q: What about the Tumor volume [2, 15] of the same substance?
A: 160 ± 25 mm^3

Q: What about the Tumor volume [2, 16] of the same substance?
A: 152 ± 25 mm^3

Q: And the Tumor volume ([2]; day 21 after inoculation, 30 mg/kg i.v. BIW×4W)?
A: 201 ± 40 mm^3

Q: What about the Tumor volume ([2]; day 21 after inoculation, 45 mg/kg i.v. QW×4W) of the same substance?
A: 204 ± 38 mm^3

Q: And the Tumor volume [2, 5]?
A: 241 ± 50 mm^3

Q: What about the Tumor volume [2, 6] of the same substance?
A: 245 ± 40 mm^3

Q: What about the Tumor volume [2, 7] of the same substance?
A: 274 ± 57 mm^3

Q: And the Tumor volume [2, 8]?
A: 293 ± 44 mm^3

Q: What about the Tumor volume [2, 9] of the same substance?
A: 335 ± 76 mm^3

Q: What about the Tumor volume [2, 10] of the same substance?
A: 323 ± 45 mm^3

Q: What about the Tumor volume [2, 11] of the same substance?
A: 422 ± 108 mm^3

Q: What about the Tumor volume [2, 12] of the same substance?
A: 436 ± 74 mm^3

Q: And the Tumor volume [2, 13]?
A: 504 ± 119 mm^3

Q: What about the Tumor volume [2, 14] of the same substance?
A: 518 ± 87 mm^3

Q: And the Tumor volume ([2]; day 42 after inoculation, 30 mg/kg i.v. BIW×4W, 30 mg/kg)?
A: 627 ± 145 mm^3

Q: And the Tumor volume ([2]; day 42 after inoculation, 45 mg/kg i.v. QW×4W, 45 mg/kg)?
A: 720 ± 106 mm^3

Q: What about the “TGD (to 1,000 mm^3)” value ([3]; 30 mg/kg i.v. BIW×4W) of the same substance?
A: >12

Q: And the “T/C (%) RTV” value ([3]; 30 mg/kg i.v. BIW×4W)?
A: 29%

Q: And the “T/C (%) TW” value ([3]; 30 mg/kg i.v. BIW×4W)?
A: 27%

Q: What about the “TGD (to 1,000 mm^3)” value ([3]; 45 mg/kg i.v. QW×4W) of the same substance?
A: >12

Q: And the “T/C (%) RTV” value ([3]; 45 mg/kg i.v. QW×4W)?
A: 46%

Q: What about the “T/C (%) TW” value ([3]; 45 mg/kg i.v. QW×4W) of the same substance?
A: 45%

Q: What about the “anti-tumor effect (in words)” value ([3]; 5-FU 25 mg/kg, LPR-2 30 and 45 mg/kg) of the same substance?
A: significant anti-tumor effect

Q: What about the RTV ([3]; 30 mg/kg i.v. BIW×4W) of the same substance?
A: 3.48 ± 0.68

Q: And the Tumor weight ([3]; 30 mg/kg i.v. BIW×4W)?
A: 517 ± 67 mg

Q: What about the RTV ([3]; 45 mg/kg i.v. QW×4W) of the same substance?
A: 5.61 ± 0.67

Q: What about the Tumor weight ([3]; 45 mg/kg i.v. QW×4W) of the same substance?
A: 845 ± 87 mg

Q: What about the Tumor volume ([3]; day 10 after inoculation, 30 mg/kg i.v. BIW×4W) of the same substance?
A: 171 ± 15 mm^3

Q: What about the Tumor volume ([3]; day 10 after inoculation, 45 mg/kg i.v. QW×4W) of the same substance?
A: 171 ± 19 mm^3

Q: And the Tumor volume ([3]; day 13 after inoculation, 30 mg/kg i.v. BIW×4W)?
A: 176 ± 11 mm^3

Q: What about the Tumor volume ([3]; day 13 after inoculation, 45 mg/kg i.v. QW×4W) of the same substance?
A: 180 ± 25 mm^3

Q: And the Tumor volume [3, 15]?
A: 217 ± 25 mm^3

Q: What about the Tumor volume [3, 16] of the same substance?
A: 234 ± 28 mm^3

Q: And the Tumor volume ([3]; day 20 after inoculation, 30 mg/kg i.v. BIW×4W)?
A: 260 ± 30 mm^3

Q: What about the Tumor volume ([3]; day 20 after inoculation, 45 mg/kg i.v. QW×4W) of the same substance?
A: 257 ± 24 mm^3

Q: And the Tumor volume [3, 5]?
A: 303 ± 32 mm^3

Q: What about the Tumor volume [3, 6] of the same substance?
A: 399 ± 25 mm^3

Q: What about the Tumor volume ([3]; day 27 after inoculation, 30 mg/kg i.v. BIW×4W) of the same substance?
A: 317 ± 42 mm^3

Q: And the Tumor volume ([3]; day 27 after inoculation, 45 mg/kg i.v. QW×4W)?
A: 496 ± 39 mm^3

Q: And the Tumor volume [3, 9]?
A: 395 ± 39 mm^3

Q: And the Tumor volume [3, 10]?
A: 607 ± 60 mm^3

Q: And the Tumor volume ([3]; day 34 after inoculation, 30 mg/kg i.v. BIW×4W)?
A: 437 ± 44 mm^3

Q: And the Tumor volume ([3]; day 34 after inoculation, 45 mg/kg i.v. QW×4W)?
A: 640 ± 93 mm^3

Q: And the Tumor volume ([3]; day 38 after inoculation, 30 mg/kg i.v. BIW×4W, 30 mg/kg)?
A: 553 mm^3 and 553 ± 63 mm^3
